Data from patent US4410629A, “ML-236B Derivatives and their preparation” (Sankyo Company Limited, priority 1980, dated 1983).
Counter-ions that a name gives are not always drawn.

What was measured:
[1] = tested on: cholesterol biosynthesis; assay: Inhibition of cholesterol biosynthesis (method of J. Biol. Chem. 234, 2835 (1959)); type: biochemical
[2] = tested on: 3-hydroxy-3-methylglutaryl-coenzyme A reductase; conditions: competing with the rate-limiting enzyme HMG-CoA reductase; J. Antibiotics 29, 1346 (1976); cited from earlier work
[3] = tested on: serum cholesterol levels; conditions: animals; J. Antibiotics 29, 1346 (1976); cited from earlier work

CC[C@H](C)C(=O)O[C@H]1CC=CC2=C[C@@H](O)[C@H](C)[C@H](CC[C@@H]3C[C@@H](O)CC(=O)O3)[C@H]21 [IsoM-4' lactone]
concentration required to inhibit cholesterol biosynthesis by 50% [1]: 0.013 µg/mL

CC[C@H](C)C(=O)O[C@H]1CC=CC2=C[C@@H](O)[C@H](C)[C@H](CC[C@@H](O)C[C@@H](O)CC(=O)OC)[C@H]21 [IsoM-4' methyl ester]
concentration required to inhibit cholesterol biosynthesis by 50% [1]: 0.007 µg/mL

CC[C@H](C)C(=O)O[C@H]1C[C@H](O)C=C2C=C[C@H](C)[C@H](CC[C@@H](O)C[C@@H](O)CC(=O)OC)[C@H]21 [M-4 methyl ester]
concentration required to inhibit cholesterol biosynthesis by 50% [1]: 0.001 µg/mL

CC[C@H](C)C(=O)O[C@H]1C[C@H](O)C=C2C=C[C@H](C)[C@H](CC[C@@H](O)C[C@@H](O)CC(=O)O)[C@H]21 [M-4 sodium salt]
concentration required to inhibit cholesterol biosynthesis by 50% [1]: 0.0008 µg/mL

CC[C@H](C)C(=O)O[C@H]1C[C@@H](O)C=C2C=C[C@H](C)[C@H](CC[C@@H](O)C[C@@H](O)CC(=O)O)[C@H]21 [M-4' sodium salt]
concentration required to inhibit cholesterol biosynthesis by 50% [1]: 0.00049 µg/mL

CCC(C)C(=O)OC1CCC=C2C=CC(C)C(CCC3CC(O)CC(=O)O3)C21 (centres unmarked) [ML-236B]
concentration required to inhibit cholesterol biosynthesis by 50% [1]: 0.01 µg/mL
inhibition of the biosynthesis of cholesterol by enzymes or cultured cells [2]: inhibit the biosynthesis of cholesterol
serum cholesterol levels [3]: significantly reduces serum cholesterol levels of animals
